{"source": "patent US20100266503A1", "about": "“Breast Cancer Methods, Medicaments and Agents” (priority 2007, published 2010)", "assay_type_in_all_cases": "cell-based", "key": {"[1]": {"test_system": "MDA-MB-231, T47-D and MCF-7 breast cancer cell lines", "assay": "Proliferation of breast cancer cell lines treated with GSIs for 72 h, Coulter Counter cell count", "conditions": "tested 10 nM to 50 μM", "method": "Graphs illustrating the effects of three GSIs: (A) DAPT (N-[N-(3,5-Difluorophenacetyl-L-alanyl)]-S-phenylglycine t-butyl ester), (B) Compound E ((2S)-2-{[(3,5-Difluorophenyl)acetyl]amino}-N-[(3S)-1-methyl-2-oxo-5-phenyl-2,3-dihydro-1H-1,4-benzodiazepin-3-yl]propanamide) and (C) GSI1 (Z-Leu-Leu-Nle-CHO) on proliferation in three breast cancer cell lines (MDA-MB-231, T47-D and MCF-7 cells). Cells were treated with the GSIs at different concentrations for 72 hours and the number of cells counted.\nFIG. 6 illustrates the effect of three GSIs, DAPT, Compound E and GSI1 on proliferation in three breast cancer cell lines, MDA-MB-231 [Oestrogen receptor (ER) negative, epidermal growth factor receptor (EGFR) and HER-2 strongly positive, increasingly metastatic T47-D-MCF-MDA], T47-D [weakly ER positive, progesterone receptor positive, strongly EGFR (HER-1, cERB-B1) positive and HER-2(c-ERB-B2) positive] and MCF-7 [highly ER positive and very weakly EGFR and HER-2 positive if at all]. The breast cancer cell lines were treated with the 3 GSIs for 72 h. 20,000 cells were seeded into 24 well plates in triplicate and allowed to adhere overnight. […] After 72 hours the media was removed and the adherent cells removed and counted on a Coulter Counter. […]"}, "[2]": {"test_system": "CD44 in ZR75-1 and MCF10A cells", "assay": "CD44 immunofluorescence staining after GSI1", "conditions": "GSI1 750 nM", "excerpt": "Stained sections of the breast cancer cell line ZR75-1 (A-D) and the normal cell line (E-H) showing effect of GSI1 on CD44 concentration. Upper sections (A, B, E and F) show cells treated with GSI1. Lower sections (C, D, G and H) show untreated cells. Sections were stained with an anti CD44 primary antibody and a fluorescently labeled secondary antibody to detect CD44. Nuclei were counterstained with DAPI, as shown in panels A, C, E and G.\nIn order to understand the mechanism of how GS inhibition by GSI1 leads to cell death, we investigated the effect of GS inhibition on CD44 expression which is a substrate for GS and is a cell adhesion molecule. […] The effect of GSI1 on CD44 expression was investigated in one cancer, ZR75-1, and one normal, MCF10A, cell line±GSI1 (at 750 nM i.e. inhibitory dose) (FIG. 9). We used an anti CD44 primary antibody and a fluorescently labelled secondary antibody to detect the CD44. Specifically, the CD44 antibody was a FITC conjugated antibody (BD Biosciences) that was used at a 1:40 dilution. The antibody was incubated for 60 mins at room temperature after fixing in formalin. Nuclei were counterstained with DAPI. […] Thus the inhibitor was not causing the cells to become detached from the plates and die."}, "[3]": {"test_system": "MDA-MB-231, T47D and MCF-7 cells", "assay": "Annexin V staining / full cell cycle analysis by FACS after GSI1", "method": "We next did Annexin V staining which is a marker of apoptosis. Cells were treated with GSI1 for 0, 7, 24 and 48 hours. After trypsinizing, the cells were washed with PBS 5 times and then treated with RNAase (100 μg/ml) for 20 mins then propidium iodide was added at 50 μg/ml per 1×10^7 cells, and incubated overnight at 4° C. The samples were then filtered through a 70 μm mesh and run on a FACS with the following settings: Forward scatter 113, side scatter 356 and PE setting 380. Although there was an increase in staining indicating apoptosis, this was only approximately 10%. For example, in MDA-MB-231 cells there was a 5% increase in Annexin V staining after 7 hours of treatment and in T47D and MCF-7 cells there was an 8% increase in Annexin V staining. We have repeated these experiments with full cell cycle analysis at 7, 24 and 48 h post treatment and again detect apoptosis but […]. […] Nevertheless it is likely that cell proliferation is inhibited via another mechanism as opposed to the induction of cellular death."}, "[4]": {"test_system": "GS components, Notch 1, Actin and Lamin A/C in a single breast cancer cell line", "assay": "Western blot of protein levels after GSI1", "conditions": "750 nM GSI1 vs DMSO control", "method": "Western blot analysis of GS components, Notch 1, Actin and Lamin A/C in response to DMSO control (1) or 750 nm GSI1 (2). Tubulin was used as a loading control.\nFIG. 10 illustrates the effect of GSI1 on the protein levels of the GS components and of Notch 1, Actin and Lamin A/C in a single breast cancer cell line. Shown, are Western blots of the proteins in reponse to treatment with GSI1 (750 nM) or DMSO control. All antibodies were from Abcam unless otherwise stated. Notch1 (Mouse) 1:500, Nicastrin rabbit 1:500, Pen-2 rabbit 1:1000, Presenilin, Goat 1:200, APH-1A Rabbit, 1:500, APH-1B Rabbit, 1:1000, Actin Mouse, 1:20,000(Santa Cruz), Tubulin, Mouse, 1:1000 (Sigma), Lamin NC 1:5000 (Santa Cruz). Secondary Antibodies used were goat anti mouse horseradish peroxidase (Sigma) 1:5000, goat anti-rabbit horseradish peroxidase (Sigma 1:10000) and donkey anti-goat horseradish peroxidase (Sigma 1:5000). Although GSI1 had some effects on protein expression these were marginal apart from Notch 1."}, "[5]": {"test_system": "Hes1 transcriptional activity (Notch target gene)", "assay": "CSL (Hes-1) Luciferase reporter assay upon GSI1 treatment", "conditions": "750 nM, 2 microM, 5 microM; 24 h", "method": "For the Luciferase based reporter assay, 5×10^4 cells were plated in 48 well plates and allowed to adhere over night. The following day, cells were transfected with 200 ng of the 23A plasmid (Hes-1 reporter). 24 h after transfection, transfection media was evacuated and replaced with treatment media (750 nM, 2 microM, 5 microM of the GSI1 and a vehicle treated control). Cells were incubated for 24 h at 37 C. At the 24 h time point the Dual Glow (Promega) Luciferase Kit was implemented according to manufacturer's protocol)."}}, "note": "Non-standard residues stand in square brackets, D forms with d. Residues, ends and D or L forms follow the SMILES beside them. *: point of attachment. Nle = CCCC[C@H](N)C(=O)O; Cbz = O=C(OCc1ccccc1)*", "data": [{"smiles": "CCCC[C@@H](C=O)NC(=O)[C@H](CC(C)C)NC(=O)[C@H](CC(C)C)NC(=O)OCc1ccccc1", "note": "[GSI1, Z-Leu-Leu-Nle-CHO] (Cbz-Leu-Leu-[Nle]-aldehyde)", "values": [{"measurement": "concentration that virtually eliminates all the cells", "setting": "[1]", "result": 1, "unit": "µM"}, {"measurement": "CD44 expression", "setting": "[2]", "result": "up-regulation of CD44"}, {"measurement": "apoptosis level in full cell cycle analysis", "setting": "[3]; 7, 24 and 48 h post treatment, higher concentration of GSI", "result": "> 25", "unit": "%"}, {"measurement": "cell cycle status", "setting": "[3]; higher concentration of GSI", "result": "majority of cells were in G2/M Cell cycle arrest"}, {"measurement": "increase in Annexin V staining indicating apoptosis", "setting": "[3]; treated 0, 7, 24 and 48 hours", "result": "approximately 10%"}, {"measurement": "Notch 1 protein expression", "setting": "[4]", "result": "markedly upregulated"}, {"measurement": "protein expression other than Notch 1 (GS components, Actin, Lamin A/C)", "setting": "[4]", "result": "only marginal effects on protein expression"}, {"measurement": "Hes1 reporter (Luciferase) activity", "setting": "[5]", "result": "dose dependant decrease of the reporter activity"}]}]}
